Values quoted from earlier work as cited in article PMC7536072, “Molecular and functional characterization of somatostatin-type signalling in a deuterostome invertebrate” (Open Biology, 2020).
Bridges are numbered along the chain shown (N, C = ends). Where no end group is shown, it is not given here.

What was measured:
[1] = test system: growth hormone release; details: ref [1]; cited from earlier work
From the text: (§1) Subsequently, an N-terminally extended isoform (SS28) was identified, with both SS14 and SS28 being derived from the same precursor protein [5]. Five G-protein-coupled receptors, SSTR1, SSTR2, SSTR3, SSTR4 and SSTR5, mediate effect ...

[2] = test system: insulin release; details: ref [2]; cited from earlier work
From the text: as §1

[3] = test system: mammals; details: intracerebroventricular, cited from earlier work
From the text: as §1

SS: tetradecapeptide with a disulfide bridge linking cysteine residues at positions 3 and 14 (SS14) (AGCKNFFWKTFTSC; disulfide 3-14; UniProt P61278 103-116, looked up)
effect on growth hormone release [1]: inhibits growth hormone release
effect on insulin release [2]: inhibits insulin release
effect on food intake and drinking ([3]; ref [12],[13]): stimulation of food intake and drinking
anxiolytic effect ([3]; ref [14]): anxiolysis
